Reference: article PMC4427029 (Cell, 2015)
Where two headings read alike, the source gives them in different places.

How the values were obtained:
[1] = test system: AT1R; conditions: cited from earlier work
[2] = test system: AT1R single mutants; assay: Ligand binding assays on AT1R single mutants, COS-1 cell membranes; conditions: residues Tyr35, Trp84, Arg167 and Lys199
[3] = molecular target: T1, AT1R single mutants (Homo sapiens, UniProt P30556, P285A); assay: as above; conditions: Pro285Ala mutant
T1 sequence (P30556 1-359 P285A): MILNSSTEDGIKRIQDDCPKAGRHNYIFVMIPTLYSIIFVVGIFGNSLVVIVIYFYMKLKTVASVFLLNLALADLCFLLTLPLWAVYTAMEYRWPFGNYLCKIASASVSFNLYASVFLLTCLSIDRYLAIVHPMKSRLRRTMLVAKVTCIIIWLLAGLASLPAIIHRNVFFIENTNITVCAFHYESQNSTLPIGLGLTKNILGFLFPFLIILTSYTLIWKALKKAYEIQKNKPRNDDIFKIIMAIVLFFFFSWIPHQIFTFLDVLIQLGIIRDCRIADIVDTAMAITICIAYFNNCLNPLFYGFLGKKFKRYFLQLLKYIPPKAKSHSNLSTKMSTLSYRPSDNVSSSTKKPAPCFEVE

**Q.** What does the source list for `CCCCc1nc(Cl)c(CO)n1Cc1ccc(-c2ccccc2-c2nn[nH]n2)cc1` [Losartan, losartan]?
**A.** binding affinity to AT1R compared to the later developed ARBs ([1]; ref Miura et al., 2011): lower; mode of antagonism ([1]; ref Miura et al., 2011): surmountable antagonist

**Q.** With `CCc1cc2c(c(CC)n1)CCC(=O)N2Cc1ccc(-c2ccccc2-c2nn[nH]n2)cc1` [ZD7155] as the compound, how does the “potency and duration compared with losartan” value ([1]; ref Junggren et al., 1996) read?
**A.** Its value is “more potent and longer-lasting”.

**Q.** For `CCOc1nc2cccc(C(=O)O)c2n1Cc1ccc(-c2ccccc2-c2nnn[nH]2)cc1` [candesartan], which “dissociation rate from AT1R” value ([1]; ref Takezako et al., 2004) is on record?
**A.** Its value is “slow”.

**Q.** What about the mode of antagonism ([1]; ref Takezako et al., 2004) of the same compound?
**A.** Its mode of antagonism is “insurmountable inverse agonist”.

**Q.** What about the “role of residues for binding (mutagenesis)” value [2] of the same compound?
**A.** The value was “critical”.

**Q.** Which “change of binding affinity at mutant” value [3] does the source give for `CCCCc1ncc(/C=C(\Cc2cccs2)C(=O)O)n1Cc1ccc(C(=O)O)cc1` [eprosartan] here?
**A.** Its value is “strong decrease”.

**Q.** Which “role of residues for binding (mutagenesis)” value [2] does the source give for [Sar^1, Ile^8]-AngII here?
**A.** The value was “critical”.
